Results as given in article PMC6930659, “Antiprotozoal Activity of Turkish Origanum onites Essential Oil and Its Components” (Molecules, 2019).
In brackets after ≈: the same amount, converted by molar mass. Where two headings read alike, the source gives them in different places.

How the values were obtained:
[1] = tested on: Trypanosoma brucei rhodesiense STIB 900; assay: In vitro assay for Trypanosoma brucei rhodesiense (resazurin); assay type: cell-based
Description: Trypanosoma brucei rhodesiense STIB 900 strain, isolated in 1982 from a human patient in Tanzania and, after several mouse passages, cloned and adapted to axenic culture conditions, was used in this assay. Minimum essential medium (50 μL) supplemented with 25 mM HEPES, 1 g/L additional glucose, 1% MEM non-essential amino acids (100×), 0.2 mM 2-mercaptoethanol, 1 mM Na-pyruvate, and 15% heat inactivated horse serum was added to each well of a 96 well microtiter plate. Serial drug dilutions of seven 3-fold dilution steps covering a range from 90 to 0.123 μg/mL were prepared, and then 4 × 10^4 blood stream forms of T. b. rhodesiense STIB 900 in 50 μL were added to each well and the plate was incubated at 37 °C under a 5% CO2 atmosphere for 72 h. Resazurin solution (resazurin, 12.5 mg in 100 mL double-distilled water) (10 μL) was then added to each well and incubated for a further 2–4 h. At the end of the assay, the plates were read with a Spectramax Gemini XS microplate fluorometer (Molecular Devices Cooperation, Sunnyvale, CA, USA) using an excitation wavelength of 536 nm and an emission wavelength of 588 nm. Data were analyzed using the microplate reader software Softmax Pro (Molecular Devices Cooperation, Sunnyvale, CA, USA). Melarsoprol was used as standard drug.

[2] = tested on: L. donovani (strain MHOM/ET/67/L82) amastigotes; assay: In vitro assay for Leishmania donovani axenic amastigotes (resazurin); assay type: cell-based; settings: axenic amastigotes, 72 h, means of two determinations ± deviation, read-out: IC50 Leishmania donovani
Description: Amastigotes of L. donovani (strain MHOM/ET/67/L82) were grown in axenic culture at 37 °C in SM medium at pH 5.4 supplemented with 10% heat-inactivated FBS under an atmosphere of 5% CO2. Culture medium (100 μL) with 10^5 amastigotes from axenic culture with or without a serial drug dilution was seeded in 96 well microtiter plates. Serial drug was prepared covering a range of dilutions from 90 to 0.123 μg/mL. After 72 h of incubation, the plates were inspected under an inverted microscope to assure growth of the controls and sterile conditions. Subsequently, 10 μL resazurin solution (12.5 mg resazurin dissolved in 100 mL double-distilled water) was added to each well and the plates were incubated for another 2 h. The plates were then read with a Spectramax Gemini XS microplate fluorometer (Molecular Devices Cooperation, Sunnyvale, CA, USA) using an excitation wavelength of 536 nm and an emission wavelength of 588 nm. Data were analyzed using the software Softmax Pro (Molecular Devices Cooperation, Sunnyvale, CA, USA). A decrease of fluorescence (=inhibition) was expressed as percentage of the fluorescence of control cultures and plotted against the drug concentrations. From the sigmoidal inhibition curves, the IC50 values were calculated. Miltefosine was used as a reference drug.

[3] = tested on: T. cruzi Tulahuen strain C2C4; assay: In vitro assay for Trypanosoma cruzi in L-6 cells (β-galactosidase/CPRG); assay type: cell-based; settings: Trypanosoma cruzi, L6; Tulahuen C2C4 in L-6 cells, 96 h; highest concentration tested 90 μg/mL; means of two determinations ± deviation
Description: Rat skeletal myoblasts (L-6 cells) were seeded in 96 well microtiter plates (2000 cells/well) in 100 μL RPMI 1640 medium with 10% FBS and 2 mM L-glutamine for 24 h. After that, the medium was removed and replaced by 100 μL per well containing 5000 trypomastigote forms of T. cruzi Tulahuen strain C2C4, containing the β-galactosidase (Lac Z) gene. The medium was removed from the wells after 48 h, and replaced with 100 μL fresh medium with or without a serial drug dilution of seven 3-fold dilution steps covering a range from 90 to 0.123 μg/mL. After 96 h of incubation, the plates were inspected under an inverted microscope to assure growth of the controls and sterility, after which the substrate CPRG/Nonidet ([…]) was added to all wells. A color reaction developed within 2–6 h and could be read photometrically at 540 nm. Data were transferred into the graphic program Softmax Pro (Molecular Devices Cooperation, Sunnyvale, CA, USA) and the IC50 values were calculated from the sigmoidal dose response curves. Benznidazole was the reference drug.

P. falciparum K1 strain = assay: In vitro assay for Plasmodium falciparum ([3H]-hypoxanthine incorporation); assay type: cell-based
Description: Activity against the erythrocytic stages of P. falciparum was determined using an in vitro modified [^3H]-hypoxanthine incorporation assay, using the chloroquine- and pyrimethamine-resistant K1 strain [68]. Compounds were dissolved in DMSO at 10 mg/mL and further diluted in medium before added to parasite cultures incubated in RPMI 1640 medium without hypoxanthine, supplemented with HEPES (5.94 g/l), NaHCO3 (2.1 g/L), neomycin (100 U/mL), AlbumaxR (5 g/L), and washed human red cells A+ at 2.5% haematocrit (0.3% parasitaemia). Serial drug dilutions of seven 3-fold dilution steps covering a range from 90 to 0.123 μg/mL were prepared. The 96 well plates were incubated in a humidified atmosphere at 37 °C; 4% CO2, 3% O2, 93% N2. After 48 h 50 μL of ^3H-hypoxanthine (=0.5 μCi) was added to each well of the plate. The plates were incubated for a further 24 h under the same conditions. The plates were then harvested with a Betaplate™ cell harvester (Wallac, Zurich, Switzerland), and the red blood cells transferred onto a glass fiber filter then washed with distilled water. The dried filters were inserted into a plastic foil with 10 mL of scintillation fluid, and counted in a Betaplate™ liquid scintillation counter (Wallac, Zurich, Switzerland). […] IC50 values were calculated from the sigmoidal inhibition curves using Microsoft Excel. Chloroquine was used as positive control drug.

[4] = In vitro assay for cytotoxicity on mammalian cells (resazurin); assay type: cell-based, rat
Description: (§1) Assays were performed in 96 well microtiter plates (4 × 10^4 L6 cells/well), each well containing 100 μL of RPMI 1640 medium supplemented with 1% L-glutamine (200 mM) and 10% FBS. L6 cells are a primary cell line derived from rat skeletal myoblasts. Serial drug dilutions of seven 3-fold dilution steps covering a range from 90 to 0.123 μg/mL were prepared. After 72 h of incubation, the plates were inspected under an inverted microscope to assure growth of the controls and sterile conditions. Resazurin solution (10 μL) (12.5 mg resazurin in 100 mL double-distilled water) was then added to each well and the plates incubated for another 2 h. The plates were then read with a Spectramax Gemini XS microplate fluorometer (Molecular Devices Cooperation, Sunnyvale, CA, USA) using an excitation wavelength of 536 nm and an emission wavelength of 588 nm. Data were analyzed using the microplate reader software Softmax Pro (Molecular Devices Cooperation, Sunnyvale, CA, USA). From the sigmoidal inhibition curves, the IC50 values were calculated. Podophyllotoxin was the positive control.

T. brucei brucei STIB795 = assay: In vivo trypanocidal activity, T. brucei brucei STIB795 mouse model; set-up: species or system Trypanosoma brucei brucei; settings: 5.0 mg/kg × 4 days i.p., NMRI mice; for Mean Survival: untreated control 5.25 days
Description: In vivo efficacy studies in mice were conducted at the Swiss Tropical and Public Health Institute (Basel) (License number 2813) according to the rules and regulations for the protection of animal rights (“Tierschutzverordnung”) of the Swiss “Bundesamt für Veterinärwesen”. They were approved by the veterinary office of Canton Basel-Stadt, Switzerland. Groups of four female NMRI mice weighing 20 to 25 g were infected i.p. on Day 0 (d0) with 10^5 bloodstream forms of T. brucei brucei STIB 795, which is a derivative of strain 427. Compounds were formulated in 100% DMSO diluted 10-fold in distilled water. Mice were treated on four consecutive days (d3 to d6 post-infection) with the Origanum onites oil, as well as carvacrol and thymol, at 100 mg/kg by the i.p. route. One group served as untreated controls, and two other groups were treated with the standard drugs pentamidine (5 mg/kg for 4 days) and melarsoprol (2 mg/kg for 4 days), respectively. The levels of parasitemia of the mice were checked by microscopic examination of tail blood on Day 7 and thereafter twice a week until Day 30 post infection. Mice were considered cured when there was no parasitaemia relapse detected in the tail blood over the 30 day observation period. The day of relapse and surviving days were recorded.

[5] = tested on: T. brucei bloodstream forms; set-up: method as in PMID 10865458; settings: cited from earlier work
L6 cells = assay: In vitro assay for cytotoxicity on mammalian cells (resazurin); assay type: cell-based, rat; settings: rat
Description: as §1

[6] = Trypanosoma brucei, 72 h, STIB 900 blood stream forms, 72 h; means of two independent determinations ± deviation from the mean; read-out: IC50 Trypanosoma brucei rhodesiense
[7] = K1 strain (chloroquine- and pyrimethamine-resistant), erythrocytic stages, means of two determinations ± deviation, read-out: IC50 Plasmodium falciparum
[8] = L6 cells (rat skeletal myoblasts), rat skeletal myoblasts, 72 h, means of two determinations ± deviation, read-out: IC50 Cytotoxicity L6 cells
[9] = rat skeletal myoblasts, 72 h, means of two determinations ± deviation, read-out: IC50 Cytotoxicity L6 cells

Row | SMILES | IC50 [1, 6] [µg/mL] | IC50 [2] [µg/mL] | IC50 [3] [µg/mL] | IC50 (P. falciparum K1 strain; [7]) [µg/mL] | IC50 at 72 h [4, 8] [µg/mL] | other results
1 | CC1(C)C2CCC1(C)C(O)C2 (stereo not drawn) [Borneol] | 24.3 ± 11.8 (≈ 158 µM) | 52.1 ± 16.6 (≈ 338 µM) | > 90 | > 20 | > 90 | –
2 | COc1cc(C(C)C)ccc1C [Carvacrol Methyl Ether] | 17 ± 22 (≈ 104 µM) | 17.5 ± 1.7 (≈ 107 µM) | > 90 | > 20 | – | IC50 at 72 h ([4]; rat): > 90 µg/mL
3 | C=C[C@](C)(O)CCC=C(C)C [L-Linalool] | 3.6 ± 2.5 (≈ 23.3 µM) | 86.3 ± 2.8 (≈ 559 µM) | > 90 | > 20 | – | IC50 at 72 h ([4]; rat): > 90 µg/mL
4 | C=CC(=C)CCC=C(C)C [Myrcene] | 22 ± 14.8 (≈ 161 µM) | 48.2 ± 12.7 (≈ 354 µM) | > 90 | > 20 | > 90 | –
5 | N=C(N)c1ccc(OCCCCCOc2ccc(C(=N)N)cc2)cc1 [Pentamidine, reference compound] | – | – | – | – | – | Cured/Infected (T. brucei brucei STIB795): 4/4; Mean Survival (T. brucei brucei STIB795): >30 days; Mean Survival (T. brucei brucei STIB795; listed as pentamidine): over 30 days
6 | CC1=CCC(O)(C(C)C)CC1 (stereo not drawn) [Terpinen-4-ol] | 0.66 ± 0.4 (≈ 4.28 µM) | 68.7 ± 14.2 (≈ 445 µM) | 46.8 ± 7.4 (≈ 303 µM) | > 20 | 43.3 ± 16.5 (≈ 281 µM) | ED50 T. brucei bloodstream forms [5]: 0.02 µg/mL (≈ 0.13 µM); selectivity to the parasite than to the human cell line [5]: 1000 fold
7 | COc1cc(C)ccc1C(C)C [Thymol Methyl Ether] | 4.1 ± 1.97 (≈ 25 µM) | 86 ± 1.9 (≈ 524 µM) | > 90 | > 20 | – | IC50 at 72 h ([4]; rat): > 90 µg/mL
8 | CC1=CC(=O)C(C(C)C)=CC1=O [Thymoquinone] | 0.11 ± 0.02 (≈ 0.67 µM) | 1.7 ± 0.16 (≈ 10.4 µM) | 18.2 ± 4.3 (≈ 111 µM) | 2.6 ± 0.16 (≈ 15.8 µM) | 20.5 ± 8.1 (≈ 125 µM) | fold higher cytotoxicity on L6 cells than thymol (L6 cells): 2.5 fold
9 | O=C(Cn1ccnc1[N+](=O)[O-])NCc1ccccc1 [benznidazole, reference compound] | – | – | 0.44 (≈ 1.69 µM) | – | – | –
10 | CCN(CC)CCCC(C)Nc1ccnc2cc(Cl)ccc12 (stereo not drawn) [chloroquine, reference compound] | – | – | – | – | – | IC50 (P. falciparum K1 strain; K1, read-out: IC50 Plasmodium falciparum): 0.056 µg/mL (≈ 0.175 µM)
11 | Nc1nc(N)nc(Nc2ccc([As]3SCC(CO)S3)cc2)n1 (stereo not drawn) [melarsoprol, reference compound] | – | – | – | – | – | IC50 ([1]; Trypanosoma brucei, 72 h, read-out: IC50 Trypanosoma brucei rhodesiense): 0.003 µg/mL
12 | CCCCCCCCCCCCCCCCOP(=O)([O-])OCC[N+](C)(C)C [miltefosine, reference compound] | – | 0.2 (≈ 0.491 µM) | – | – | – | –
13 | Cc1ccc(C(C)C)cc1 [p-Cymene] | 45 ± 27 (≈ 335 µM) | > 90 | > 90 | > 20 | > 90 | –
14 | COc1cc([C@@H]2c3cc4c(cc3[C@H](O)[C@H]3COC(=O)[C@H]23)OCO4)cc(OC)c1OC [phodophyllotoxin, reference compound] | – | – | – | – | – | IC50 at 72 h [4, 9]: 0.004 µg/mL (≈ 0.00965 µM)
15 | CC1=CC[C@@H](C(C)(C)O)CC1 [α-Terpineol] | 0.56 ± 0.4 (≈ 3.63 µM) | 75.9 ± 4.7 (≈ 492 µM) | 61 ± 2.1 (≈ 395 µM) | > 20 | – | IC50 [4, 9]: 32.3 ± 0.1 µg/mL (≈ 209 µM)
16 | C=C1CC/C=C(\C)CC[C@@H]2[C@@H]1CC2(C)C [β-Caryophyllene] | 28.9 ± 11.8 (≈ 141 µM) | 52.4 ± 17.4 (≈ 256 µM) | 50.1 ± 12.5 (≈ 245 µM) | 12.8 (≈ 62.6 µM) | 62.2 ± 7 (≈ 304 µM) | –
17 | CC1=CCC(C(C)C)=CC1 [γ-Terpinene] | – | > 90 | > 90 | > 20 | – | IC50 ([1]; Trypanosoma brucei; STIB 900 blood stream forms, 72 h; means of two independent determinations ± deviation from the mean; read-out: IC50 Trypanosoma brucei rhodesiense): 32.9 ± 26 µg/mL (≈ 241 µM); IC50 [4, 9]: > 90 µg/mL
